# According to PubChem BioAssay (NCI):
# “And” between values parts separate entries of the source, which are not always exact repeats. Equal values may be shown once.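 1) Cells in 96-well plates. 2) Compound, 48 h, 5 concentrations. 3) Linear interpolation between surrounding doses. 4) Unreached endpoint = highest concentration. GI50 marks 50% less growth. TGI is the concentration that stops growth completely.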
# Key:
# Assay in all cases: NCI tumour cell line growth inhibition, 48 h
# NCI-H226 lung = tested on: NCI-H226 lung
# DLD-1 colon = tested on: DLD-1 colon
# M14 melanoma = tested on: M14 melanoma
# OVCAR-4 ovarian = tested on: OVCAR-4 ovarian
# SF-295 CNS = tested on: SF-295 CNS
# MALME-3M melanoma = tested on: MALME-3M melanoma
# UACC-62 melanoma = tested on: UACC-62 melanoma
# SK-OV-3 ovarian = tested on: SK-OV-3 ovarian
# MOLT-4 leukemia = tested on: MOLT-4 leukemia
# HCC-2998 colon = tested on: HCC-2998 colon
# EKVX NSCLC = tested on: EKVX NSCLC
# SF-539 CNS = tested on: SF-539 CNS
# M19-MEL melanoma = tested on: M19-MEL melanoma
# IGROV1 ovarian = tested on: IGROV1 ovarian
# LOX IMVI melanoma = tested on: LOX IMVI melanoma
# DMS 273 small cell lung = tested on: DMS 273 small cell lung
# SR leukemia = tested on: SR leukemia
# DMS 114 small cell lung = tested on: DMS 114 small cell lung
# A549 NSCLC = tested on: A549 NSCLC
# HOP-62 NSCLC = tested on: HOP-62 NSCLC
# A498 renal = tested on: A498 renal
# K-562 leukemia = tested on: K-562 leukemia
# UACC-257 melanoma = tested on: UACC-257 melanoma
# ACHN renal = tested on: ACHN renal
# CCRF-CEM leukemia = tested on: CCRF-CEM leukemia
# SK-MEL-5 melanoma = tested on: SK-MEL-5 melanoma
# OVCAR-8 ovarian = tested on: OVCAR-8 ovarian
# RPMI-8226 leukemia = tested on: RPMI-8226 leukemia
# NCI-H522 lung = tested on: NCI-H522 lung
# OVCAR-3 ovarian = tested on: OVCAR-3 ovarian
# HCT-116 colon = tested on: HCT-116 colon
# TK-10 renal = tested on: TK-10 renal
# OVCAR-5 ovarian = tested on: OVCAR-5 ovarian
# HOP-18 NSCLC = tested on: HOP-18 NSCLC
# SNB-78 CNS = tested on: SNB-78 CNS
# SNB-19 CNS = tested on: SNB-19 CNS
# UO-31 renal = tested on: UO-31 renal
# NCI-H460 lung = tested on: NCI-H460 lung
# KM12 colon = tested on: KM12 colon
# XF 498 CNS = tested on: XF 498 CNS
# RXF-631 renal = tested on: RXF-631 renal
# HT29 colon = tested on: HT29 colon
# HOP-92 NSCLC = tested on: HOP-92 NSCLC
# SW-620 colon = tested on: SW-620 colon
# 786-0 renal = tested on: 786-0 renal
# SK-MEL-2 melanoma = tested on: SK-MEL-2 melanoma
# SF-268 CNS = tested on: SF-268 CNS
# U251 CNS = tested on: U251 CNS
# LXFL 529 NSCLC = tested on: LXFL 529 NSCLC
# CAKI-1 renal = tested on: CAKI-1 renal
# SN12C renal = tested on: SN12C renal
# KM20L2 colon = tested on: KM20L2 colon
# SNB-75 CNS = tested on: SNB-75 CNS
# COLO 205 colon = tested on: COLO 205 colon
# NCI-H23 lung = tested on: NCI-H23 lung
# SK-MEL-28 melanoma = tested on: SK-MEL-28 melanoma
# RXF 393 renal = tested on: RXF 393 renal
# HCT-15 colon = tested on: HCT-15 colon
# HL-60(TB) leukemia = tested on: HL-60(TB) leukemia
# SN12K1 renal = tested on: SN12K1 renal
# DU-145 prostate = tested on: DU-145 prostate
# P388/ADR leukemia = tested on: P388/ADR leukemia
# MCF7 breast = tested on: MCF7 breast
# BT-549 breast = tested on: BT-549 breast
# P388 leukemia = tested on: P388 leukemia
smiles,measurement,setting,value
C#CCOCn1cnc2c(N)ncnc21,TGI,NCI-H226 lung,> 100 µM
same,TGI,DLD-1 colon,> 100 µM
same,TGI,M14 melanoma,> 100 µM
same,TGI,OVCAR-4 ovarian,> 100 µM
same,TGI,SF-295 CNS,> 100 µM
same,TGI,MALME-3M melanoma,> 100 µM
same,TGI,UACC-62 melanoma,> 100 µM
same,TGI,SK-OV-3 ovarian,> 100 µM
same,TGI,MOLT-4 leukemia,> 100 µM
same,TGI,HCC-2998 colon,> 100 µM
same,TGI,EKVX NSCLC,> 100 µM
same,TGI,SF-539 CNS,> 100 µM
same,TGI,M19-MEL melanoma,> 100 µM
same,TGI,IGROV1 ovarian,> 100 µM
same,TGI,LOX IMVI melanoma,> 100 µM
same,TGI,DMS 273 small cell lung,> 100 µM
same,TGI,SR leukemia,> 100 µM
same,TGI,DMS 114 small cell lung,> 100 µM
same,TGI,A549 NSCLC,> 100 µM
same,TGI,HOP-62 NSCLC,> 100 µM
same,TGI,A498 renal,> 100 µM
same,TGI,K-562 leukemia,> 100 µM
same,TGI,UACC-257 melanoma,> 100 µM
same,TGI,ACHN renal,> 100 µM
same,TGI,CCRF-CEM leukemia,> 100 µM
same,TGI,SK-MEL-5 melanoma,> 100 µM
same,TGI,OVCAR-8 ovarian,> 100 µM
same,TGI,RPMI-8226 leukemia,> 100 µM
same,TGI,NCI-H522 lung,> 100 µM
same,TGI,OVCAR-3 ovarian,> 100 µM
same,TGI,HCT-116 colon,> 100 µM
same,TGI,TK-10 renal,> 100 µM
same,TGI,OVCAR-5 ovarian,> 100 µM
same,TGI,HOP-18 NSCLC,> 100 µM
same,TGI,SNB-78 CNS,> 100 µM
same,TGI,SNB-19 CNS,> 100 µM
same,TGI,UO-31 renal,> 100 µM
same,TGI,NCI-H460 lung,> 100 µM
same,TGI,KM12 colon,> 100 µM
same,TGI,XF 498 CNS,> 100 µM
same,TGI,RXF-631 renal,> 100 µM
same,TGI,HT29 colon,> 100 µM
same,TGI,HOP-92 NSCLC,> 100 µM
same,TGI,SW-620 colon,> 100 µM
same,TGI,786-0 renal,> 100 µM
same,TGI,SK-MEL-2 melanoma,> 100 µM
same,TGI,SF-268 CNS,> 100 µM
same,TGI,U251 CNS,> 100 µM
same,TGI,LXFL 529 NSCLC,> 100 µM
same,TGI,CAKI-1 renal,> 100 µM
same,TGI,SN12C renal,> 100 µM
same,TGI,KM20L2 colon,> 100 µM
same,TGI,SNB-75 CNS,> 100 µM
same,TGI,COLO 205 colon,> 100 µM
same,TGI,NCI-H23 lung,> 100 µM
same,TGI,SK-MEL-28 melanoma,> 100 µM
COc1ccccc1NC(=O)C1=C(C)NC(C)=C(C(=O)Nc2ccccc2OC)C1c1ccc(C2C(C(=O)Nc3ccccc3OC)=C(C)NC(C)=C2C(=O)Nc2ccccc2OC)cc1,TGI,NCI-H226 lung,12.1 µM
same,TGI,DLD-1 colon,2.66 µM
same,TGI,M14 melanoma,3.34 µM
same,TGI,OVCAR-4 ovarian,15.6 µM
same,TGI,SF-295 CNS,6.28 µM
same,TGI,MALME-3M melanoma,7.94 µM
same,TGI,UACC-62 melanoma,3.26 µM
same,TGI,SK-OV-3 ovarian,26 µM
same,TGI,RXF 393 renal,5.06 µM
same,TGI,MOLT-4 leukemia,17.8 µM
same,TGI,HCC-2998 colon,3.56 µM
same,TGI,EKVX NSCLC,6.91 µM
same,TGI,SF-539 CNS,3.24 µM
same,TGI,M19-MEL melanoma,11.5 µM
same,TGI,IGROV1 ovarian,3.89 µM
same,TGI,LOX IMVI melanoma,2.67 µM
same,TGI,DMS 273 small cell lung,8.67 µM
same,TGI,SR leukemia,9.93 µM
same,TGI,DMS 114 small cell lung,21.6 µM
same,TGI,A549 NSCLC,> 60.4 µM
same,TGI,HOP-62 NSCLC,14 µM
same,TGI,A498 renal,15.5 µM
same,TGI,K-562 leukemia,13.2 µM
same,TGI,UACC-257 melanoma,6.17 µM
same,TGI,ACHN renal,10 µM
same,TGI,HCT-15 colon,7.49 µM
same,TGI,CCRF-CEM leukemia,5.71 µM
same,TGI,SK-MEL-5 melanoma,8.14 µM
same,TGI,OVCAR-8 ovarian,7.52 µM
same,TGI,RPMI-8226 leukemia,8 µM
same,TGI,NCI-H522 lung,3.52 µM
same,TGI,OVCAR-3 ovarian,6.08 µM
same,TGI,HCT-116 colon,2.7 µM
same,TGI,TK-10 renal,16.2 µM
same,TGI,OVCAR-5 ovarian,10.7 µM
same,TGI,HOP-18 NSCLC,31.9 µM
same,TGI,SNB-78 CNS,23.3 µM
same,TGI,SNB-19 CNS,12.5 µM
same,TGI,UO-31 renal,14.9 µM
same,TGI,NCI-H460 lung,12.6 µM
same,TGI,KM12 colon,3.38 µM
same,TGI,XF 498 CNS,5.64 µM
same,TGI,RXF-631 renal,13.7 µM
same,TGI,HT29 colon,4.56 µM
same,TGI,HOP-92 NSCLC,9.45 µM
same,TGI,SW-620 colon,4.06 µM
same,TGI,786-0 renal,4.22 µM
same,TGI,SK-MEL-2 melanoma,5.77 µM
same,TGI,SF-268 CNS,11.6 µM
same,TGI,U251 CNS,7.01 µM
same,TGI,LXFL 529 NSCLC,5.09 µM
same,TGI,CAKI-1 renal,11.3 µM
same,TGI,SN12C renal,3.69 µM
same,TGI,KM20L2 colon,3.39 µM
same,TGI,SNB-75 CNS,25 µM
same,TGI,HL-60(TB) leukemia,5.96 µM
same,TGI,COLO 205 colon,10.2 µM
same,TGI,NCI-H23 lung,7.52 µM
same,TGI,SK-MEL-28 melanoma,6.45 µM
O=c1[nH]c(=O)n(C2CC(O)C(CO)O2)cc1F (centres undefined),TGI,SN12K1 renal,1250 µM
same,TGI,DU-145 prostate,> 100 µM and > 1570 µM and 1820 µM
same,TGI,MOLT-4 leukemia,> 100 µM and 1930 µM and > 2500 µM
same,GI50,HCC-2998 colon,33.6 µM
same,TGI,P388/ADR leukemia,74.9 µM
same,GI50,SF-539 CNS,> 79.3 µM
same,TGI,MCF7 breast,> 100 µM and 1940 µM and > 2500 µM
same,TGI,DMS 273 small cell lung,415 µM
same,TGI,SR leukemia,> 100 µM and 750 µM
same,TGI,DMS 114 small cell lung,808 µM
same,TGI,A549 NSCLC,> 100 µM and 1910 µM and > 2500 µM
same,TGI,A498 renal,> 100 µM and 84.7 µM
same,TGI,K-562 leukemia,> 100 µM and 1080 µM
same,GI50,ACHN renal,> 92.6 µM
same,TGI,ACHN renal,> 100 µM and 1670 µM
same,TGI,OVCAR-8 ovarian,> 100 µM and 2320 µM and > 2500 µM
same,TGI,TK-10 renal,> 100 µM and 1650 µM and > 2500 µM
same,TGI,OVCAR-5 ovarian,> 100 µM and 2330 µM and > 2500 µM
same,TGI,SNB-19 CNS,> 100 µM and 1750 µM and > 2500 µM
same,TGI,BT-549 breast,> 100 µM and 1030 µM and > 869 µM
same,TGI,UO-31 renal,> 100 µM and 130 µM
same,GI50,NCI-H460 lung,> 65.3 µM
same,TGI,NCI-H460 lung,> 100 µM and 526 µM
same,TGI,HT29 colon,> 100 µM and 2400 µM and > 2500 µM
same,TGI,786-0 renal,> 100 µM and 1790 µM and > 2500 µM
same,TGI,CAKI-1 renal,> 100 µM and 1100 µM and > 2500 µM
same,TGI,P388 leukemia,179 µM
same,TGI,NCI-H23 lung,> 100 µM and 239 µM
same,TGI,SK-MEL-28 melanoma,> 100 µM and 1730 µM and > 2500 µM
